Assay results reported in PMC6151695, “Novel Selective Estrogen Receptor Ligand Conjugates Incorporating Endoxifen-Combretastatin and Cyclofenil-Combretastatin Hybrid Scaffolds: Synthesis and Biochemical Evaluation” (Molecules : A Journal of Synthetic Chemistry and Natural …, 2017).
Marks after values point to notes of the source that are not given here.

Experiments:
IGROV1 = assay: NCI60 in vitro screen, Ovarian cancer; type: cell-based, human
HS 578T = assay: NCI60 in vitro screen, Breast cancer; type: cell-based, human
SN12C = assay: NCI60 in vitro screen, Renal cancer; type: cell-based, human
NCI-H23 = assay: NCI60 in vitro screen, Non-Small Cell Lung Cancer; type: cell-based, human
A549/ATCC = assay: NCI60 in vitro screen, Non-Small Cell Lung Cancer; type: cell-based, human
MCF-7 = settings: MCF-7, 10 μM
K-562 = assay: NCI60 in vitro screen, Leukemia; type: cell-based, human
786-0 = assay: NCI60 in vitro screen, Renal cancer; type: cell-based, human
TK-10 = assay: NCI60 in vitro screen, Renal cancer; type: cell-based, human
physchem = settings: buffer
HOP-92 = assay: NCI60 in vitro screen, Non-Small Cell Lung Cancer; type: cell-based, human
HL-60(TB) = assay: NCI60 in vitro screen, Leukemia; type: cell-based, human
MDA-MB-231/ATCC = assay: NCI60 in vitro screen, Breast cancer; type: cell-based, human
[1] = system: MCF-7 human breast cancer cell line; assay: Alamar Blue assay for antiproliferative effects; type: cell-based; settings: Homo sapiens, MCF7, 72 h, MCF-7, 72 h, Alamar Blue; read-out: IC50 (μM), antiproliferative effects
A498 = assay: NCI60 in vitro screen, Renal cancer; type: cell-based, human
MALME-3M = assay: NCI60 in vitro screen, Melanoma; type: cell-based, human
HT29 = assay: NCI60 in vitro screen, Colon Cancer; type: cell-based, human
60 cancer cell lines = assay: NCI 60 cell line screen, whole panel; type: cell-based, human
NCI-H460 = assay: NCI60 in vitro screen, Non-Small Cell Lung Cancer; type: cell-based, human
EKVX = assay: NCI60 in vitro screen, Non-Small Cell Lung Cancer; type: cell-based, human
SK-OV-3 = assay: NCI60 in vitro screen, Ovarian cancer; type: cell-based, human
SF295 = assay: NCI60 in vitro screen, CNS Cancer; type: cell-based, human
SW-620 = assay: NCI60 in vitro screen, Colon Cancer; type: cell-based, human
UACC-257 = assay: NCI60 in vitro screen, Melanoma; type: cell-based, human
SR = assay: NCI60 in vitro screen, Leukemia; type: cell-based, human
MDA-MB-468 = assay: NCI60 in vitro screen, Breast cancer; type: cell-based, human
HCT-116 = assay: NCI60 in vitro screen, Colon Cancer; type: cell-based, human
OVCAR-3 = assay: NCI60 in vitro screen, Ovarian cancer; type: cell-based, human
OVCAR-5 = assay: NCI60 in vitro screen, Ovarian cancer; type: cell-based, human

CC/C(=C(\c1ccccc1)c1ccc(OCCN(C)C(=O)CCC(=O)Oc2cc(/C=C\c3cc(OC)c(OC)c(OC)c3)ccc2OC)cc1)c1ccccc1 (mixture of isomers) [Compound 16a, N-{2-[4-((Z)-1,2-Diphenylbut-1-enyl)phenoxy]ethyl}-N-methylsuccinamic acid 2-methoxy-5-[(Z)-2-(3,4,5-trimethoxyphenyl)vinyl]phenyl ester]
GI50 (IGROV1; Homo sapiens, IGROV-1, IGROV1): 47.3 nM
Growth % (10^−5 M) (IGROV1; IGROV1, 10 μM): −26.34 ^e %
Growth % (10^−5 M) (HS 578T; 10 μM): 17.57%
GI50 (HS 578T; Homo sapiens): 25.5 nM
Growth % (10^−5 M) (SN12C; 10 μM): 31.84%
GI50 (SN12C; Homo sapiens): 57.6 nM
GI50 (NCI-H23; Homo sapiens, NCI-H23): 45.9 nM
Growth % (10^−5 M) (NCI-H23; NCI-H23, 10 μM): 12.25%
Growth % (10^−5 M) (A549/ATCC; 10 μM): 18.56%
GI50 (A549/ATCC; Homo sapiens): 59 nM
Growth % (10^−5 M) (MCF-7): 10.06%
GI50 (K-562; Homo sapiens, K562, K-562): < 10 nM
Growth % (10^−5 M) (K-562; K-562, 10 μM): 41.7%
Growth % (10^−5 M) (786-0; 786-0, 10 μM): 11.54%
GI50 (786-0; Homo sapiens, 786-0): 185 nM
GI50 (TK-10; Homo sapiens, TK-10): 589 nM
Growth % (10^−5 M) (TK-10; TK-10, 10 μM): 33.77%
half-life at 14.6 µg/mL (physchem): > 20 h
Growth % (10^−5 M) (HOP-92; HOP-92, 10 μM): 58.55%
GI50 (HOP-92; Homo sapiens, HOP-92): < 10 nM
Growth % (10^−5 M) (HL-60(TB); 10 μM): 28.19%
GI50 (HL-60(TB); Homo sapiens): 14.5 nM
Growth % (10^−5 M) (MDA-MB-231/ATCC; 10 μM): 23.19%
GI50 (MDA-MB-231/ATCC; Homo sapiens): 28.6 nM
IC50 [1]: 0.09 µM
Growth % (10^−5 M) (A498; A498, 10 μM): 29.47%
GI50 (A498; Homo sapiens, A498): 58.1 nM
GI50 (MALME-3M; Homo sapiens, Malme-3M): > 10000 nM
Growth % (10^−5 M) (MALME-3M; MALME-3M, 10 μM): 74.86%
Growth % (10^−5 M) (HT29; HT29, 10 μM): 6.79%
GI50 (HT29; Homo sapiens, HT-29, HT29): 489 nM
inhibition at 10 µM (HT29; Homo sapiens, HT-29, HT29, one-dose, 10 μM, read-out: growth inhibition): 93%
IC50 (60 cancer cell lines; Homo sapiens, 60 cell, read-out: GI50 (IC50) values for most of the 60 cancer cell lines): 10 to 72 nM
GI50 (60 cancer cell lines; Homo sapiens, 60 cell, NCI60 five-dose, read-out: MG-MID (μM), mean of GI50 values over all cell lines): 1.62 µM
inhibition at 10 µM (60 cancer cell lines; Homo sapiens, 60 cell, one-dose, 10 μM, read-out: growth inhibition in a further 10 cell lines): 80 to 89%
MG% (10^−5 M), Mean Growth % over all cell lines (60 cancer cell lines; NCI60 one-dose, 10 μM): 14.74%
GI50 (NCI-H460; Homo sapiens, NCI-H460): 29.9 nM
Growth % (10^−5 M) (NCI-H460; NCI-H460, 10 μM): −6.77 ^e %
Growth % (10^−5 M) (EKVX; 10 μM): 22.72%
GI50 (EKVX; Homo sapiens): 56.9 nM
GI50 (SK-OV-3; Homo sapiens, SK-OV-3): 36.8 nM
Growth % (10^−5 M) (SK-OV-3; SK-OV-3, 10 μM): 17.23%
GI50 (SF295; Homo sapiens, SF-295, SF295): 20.8 nM
inhibition at 10 µM (SF295; Homo sapiens, SF-295, one-dose, 10 μM, read-out: growth inhibition): 94%
Growth % (10^−5 M) (SF295; SF295, 10 μM): 6.21%
GI50 (SW-620; Homo sapiens, SW-620): < 10 nM
Growth % (10^−5 M) (SW-620; SW-620, 10 μM): 28.17%
GI50 (UACC-257; Homo sapiens, UACC-257): > 10000 nM
Growth % (10^−5 M) (UACC-257; UACC-257, 10 μM): 48.73%
Growth % (10^−5 M) (SR; 10 μM): 29.68%
GI50 (SR; Homo sapiens): 18.9 nM
GI50 (MDA-MB-468; Homo sapiens, MDA-MB-468): 34.3 nM
inhibition at 10 µM (MDA-MB-468; Homo sapiens, MDA-MB-468, one-dose, 10 μM, read-out: growth inhibition): 99%
Growth % (10^−5 M) (MDA-MB-468; MDA-MB-468, 10 μM): 0.68%
Growth % (10^−5 M) (HCT-116; HCT-116, 10 μM): 1.61%
GI50 (HCT-116; Homo sapiens, HCT-116): 15.6 nM
inhibition at 10 µM (HCT-116; Homo sapiens, HCT-116, one-dose, 10 μM, read-out: growth inhibition): 98%
GI50 (OVCAR-3; Homo sapiens, OVCAR-3): < 10 nM
Growth % (10^−5 M) (OVCAR-3; OVCAR-3, 10 μM): −57.79 ^e %
GI50 (OVCAR-5; Homo sapiens, OVCAR-5): 89.4 nM
Growth % (10^−5 M) (OVCAR-5; OVCAR-5, 10 μM): 34.65%
